Data published in PMC10096180, “Half-Sandwich Type Platinum-Group Metal Complexes of C-Glucosaminyl Azines: Synthesis and Antineoplastic and Antimicrobial Activities” (Molecules, 2023).
Read-outs that look alike come from different tables or passages of the source. Blank lines part the entries; values can stand above or below the compound they belong to.

Assays:
[1] = tested on: methicillin-resistant Staphylococcus aureus (MRSA) clinical isolates; assay: Broth microdilution MIC, clinical MRSA isolates; type: cell-based; conditions: 24 h, 0.08–40 μM
Protocol: (§1) We used a set of clinical isolates of S. aureus and E. faecium that were collected at the Medical Center of the University of Debrecen (Hungary) between 1 January 2018. and 31 December 2020. The clinical isolates were identified using a Microflex MALDI-TOF mass spectrometer (Bruker, Billerica, MA, USA). The antibiotic susceptibility of the isolates was tested following the European Committee on Antimicrobial Susceptibility Testing (EUCAST) guidelines, which were valid at the time of collection.
(§2) Microdilution experiments were performed according to the standards of EUCAST [85]. The bacterial isolates to be tested were grown on Mueller–Hinton agar plates. The inoculum density of bacteria was set at 5.0 × 10^5 CFU/mL in microtiter plates in a final volume of 200 μL Mueller–Hinton broth. The tested concentration range was 0.08–40 μM (10 concentrations, twofold serial dilutions), and a drug-free growth control and an inoculum-free negative control were included. The inoculated plates were incubated for 24 h at 37 °C, then visually assessed. Minimum inhibitory concentration (MIC) was defined as the lowest concentration with a 50%≤ inhibitory effect compared to the growth control. All experiments were performed at least twice in duplicate.

[2] = tested on: Staphylococcus aureus (ATCC29213); assay: Broth microdilution MIC, reference strain; type: cell-based; conditions: 0.08–40 μM, read-out: MIC S. aureus ATCC 29213
Protocol: (§3) The reference strains of Staphylococcus aureus (ATCC29213) and Enterococcus faecalis (ATCC29212) were purchased from the ATCC (Manassas, VA, USA).
as §2

[3] = tested on: Enterococcus faecalis (ATCC29212); assay: Broth microdilution MIC, reference strain; type: cell-based; conditions: 24 h, tested range 0.08–40 μM, read-out: MIC E. faecalis ATCC 29,212
Protocol: as §3, §2

[4] = tested on: A2780 cells; assay: MTT reduction assay, early toxicity, 4 h treatment; type: cell-based; conditions: inhibition at maximum concentration (100 μM) where no plateau, ND = not detectable; for inhibition at 100 µM: Homo sapiens, read-out: A2780 MTT Max Inhibition
Protocol: (§4) The complexes described above are intended to replace registered platinum complexes. Platinum complexes constitute the core of the chemotherapy regimen used in ovarian cancer; therefore, we used a cellular model of ovarian cancer, A2780, and primary human dermal fibroblasts as models of non-transformed cells (controls). For the characterization of the complexes, we used an MTT assay after 4 h of treatment for the detection of early toxicity and an SRB assay 48 h after treatment for the detection of cytostasis.
An MTT reduction assay was measures the activity of mitochondrial complex I and can be used to detect toxicity. The assay was performed in a manner similar to that described in [84]. Briefly, cells were plated in 96-well plates the day before the assay. Cells were treated with the compounds for 4 h; then, MTT was added to a 0.5 mg/mL final concentration, and cells were incubated at 37 °C in a cell incubator for 40–60 min as a function of the cell line being assessed. Culture medium was removed, the reduced MTT dye was dissolved in dimethyl-sulfoxide, and plates were measured in a plate photometer (Thermo Scientific Multiscan GO spectrophotometer, Waltham, MA, USA) at 540 nm. On each plate, wells were designed to contain vehicle-treated cells. In calculations, the readings for these wells were considered to 1, and all readings were expressed relative to these values.
(§5) Statistical analysis was performed using version 8.0.1 of GraphPad Prism. Values were tested for normal distribution using the Shapiro–Wilk normality test. Nonlinear regression was performed using the built-in “[Inhibitor] vs. response—Variable slope (four parameters), least square fit” utility of GraphPad, which yielded IC50 and Hill slope values if the sigmoid curves reached a plateau of inhibition and there was no decrease between two subsequent data points or when inhibition was over 90%. In other cases, the percentage of inhibition was taken for the maximum concentration (100 μM).

[5] = tested on: vancomycin-resistant Enterococcus (VRE) clinical isolates; assay: Broth microdilution MIC, clinical VRE isolates; type: cell-based, E. faecium; conditions: 24 h, 0.08–40 μM
Protocol: as §1, §2

[6] = tested on: A2780 cells; assay: SRB binding assay, cytostasis, 48 h treatment; type: cell-based; conditions: up to 100 μM, ND = not detectable
Protocol: as §4
An SRB assay measures protein content of cells in correlation with the cell number in an assay well and can therefore be used to assess cell proliferation or long-term cytostasis. Cells were seeded in 96-well plates the day before the assay. Cells were treated with the compounds for 48 h. Then medium was removed, and cells were fixed with 10% trichloroacetic acid. Fixed cells were washed in distilled water 3 times, followed by staining with SRB (0.4 m/V% dissolved in 1% acetic acid) for 10 min. Stained cells were washed in 1% acetic acid 5 times; acetic acid was removed, and cells were left to dry. Protein-bound SRB was released by adding 100 μL 10 mM Tris base. Plates were measured in a plate photometer (Thermo Scientific Multiscan GO spectrophotometer, Waltham, MA, USA) at 540 nm. On each plate, wells were designed to contain vehicle-treated cells. In calculations, the readings for these wells were considered to be 1, and all readings were expressed relative to these values.
as §5

[7] = Distribution coefficient (logD), n-octanol-PBS; type: physicochemical; conditions: n-octanol-PBS (pH = 7.4) system
Protocol: The logD values of the newly synthesized complexes were determined according to a procedure described in our previous publications. page 64: Ir-7b +1.17 Rh-7b +1.41 Ru-7c +1.31 Os-7c +1.59 Ir-7c +1.40 Rh-7c +1.13 Ru-7d +1.26 Os-7d +1.42 Ir-7d +1.30 Rh-7d +1.04 Ru-7e +2.22 Os-7e +2.21 Ir-7e +1.39 Rh-7e +1.66 *logD was determined in an n-octanol-PBS (pH = 7.4) system 64 (14 pictures or pasted objects on this page, not shown here)

[8] = Staphylococcus aureus, clinical isolate 20,426 MRSA, read-out: MIC 20,426 MRSA
[9] = Staphylococcus aureus, clinical isolate 24,035 MRSA, read-out: MIC 24,035 MRSA
[10] = Staphylococcus aureus, clinical isolate 24,268 MRSA, read-out: MIC 24,268 MRSA
[11] = Staphylococcus aureus, clinical isolate 24,272 MRSA, read-out: MIC 24,272 MRSA
[12] = Staphylococcus aureus, clinical isolate 24,328 MRSA, read-out: MIC 24,328 MRSA
[13] = Staphylococcus aureus, clinical isolate 24,408 MRSA, read-out: MIC 24,408 MRSA
[14] = Staphylococcus aureus, ATCC29213, 24 h
[15] = Enterococcus, clinical isolate 25,051 VRE, read-out: MIC 25,051 VRE
[16] = Enterococcus, clinical isolate 25,498 VRE, read-out: MIC 25,498 VRE
[17] = Enterococcus, clinical isolate 27,085 VRE, read-out: MIC 27,085 VRE

MIC [1, 8]: > 40 µM
MIC [1, 9]: > 40 µM
MIC [1, 10]: > 40 µM
MIC [1, 11]: > 40 µM
MIC [1, 12]: > 40 µM
MIC [1, 13]: > 40 µM
MIC [2, 14]: > 40 µM
MIC ([3]; Enterococcus faecalis): > 40 µM
MIC [5, 15]: > 40 µM
MIC [5, 16]: > 40 µM
MIC [5, 17]: > 40 µM
Compound: N[C@@H]1[C@@H](OCc2ccccc2)[C@H](OCc2ccccc2)[C@@H](COCc2ccccc2)O[C@H]1c1cnccn1 [Complex 3d, 2-(2′-Amino-2′-deoxy-3′,4′,6′-tri-O-benzyl-β-D-glucopyranosyl)pyrazine]
A2780 MTT Max Inhibition [4]: no activity

Compound: N[C@@H]1[C@@H](O)[C@H](O)[C@@H](CO)O[C@H]1c1ccccn1 [Complex 5a, 2-(2′-Amino-2′-deoxy-β-D-glucopyranosyl)pyridine]
A2780 MTT Max Inhibition [4]: did not exhibit any biological activity
A2780 SRB Max Inhibition [6]: did not exhibit any biological activity

Compound: N[C@@H]1[C@@H](OC(=O)c2ccccc2)[C@H](OC(=O)c2ccccc2)[C@@H](COC(=O)c2ccccc2)O[C@H]1c1ncccn1 [Complex 7c, 2-(2′-Amino-2′-deoxy-3′,4′,6′-tri-O-benzoyl-β-D-glucopyranosyl)pyrimidine]
inhibition at 100 µM [4]: 26.3%
A2780 SRB Max Inhibition [6]: 79.53%

Compound: N[C@@H]1[C@@H](OC(=O)c2ccccc2)[C@H](OC(=O)c2ccccc2)[C@@H](COC(=O)c2ccccc2)O[C@H]1c1cnccn1 [Complex 7d, 2-(2′-Amino-2′-deoxy-3′,4′,6′-tri-O-benzoyl-β-D-glucopyranosyl)pyrazine]
inhibition at 100 µM [4]: 18.1%
A2780 SRB Max Inhibition [6]: 73.37%

MIC [1, 8]: > 40 µM
MIC [1, 9]: > 40 µM
MIC [1, 10]: > 40 µM
MIC [1, 11]: > 40 µM
MIC [1, 12]: > 40 µM
MIC [1, 13]: > 40 µM
MIC [2, 14]: > 40 µM
MIC ([3]; Enterococcus faecalis): > 40 µM
MIC [5, 15]: > 40 µM
MIC [5, 16]: > 40 µM
MIC [5, 17]: > 40 µM
Compound: N[C@@H]1[C@@H](OC(=O)c2ccccc2)[C@H](OC(=O)c2ccccc2)[C@@H](COC(=O)c2ccccc2)O[C@H]1c1ccc2ccccc2n1 [Complex 7e, 2-(2′-Amino-2′-deoxy-3′,4′,6′-tri-O-benzoyl-β-D-glucopyranosyl)quinoline]
inhibition at 100 µM [4]: 13.6%
A2780 SRB Max Inhibition [6]: 45.20%

logD [7]: 1.30
Compound: Cc1c(C)c(C)[c-](C)c1C.F[P-](F)(F)(F)(F)F.N[C@@H]1[C@@H](OC(=O)c2ccccc2)[C@H](OC(=O)c2ccccc2)[C@@H](COC(=O)c2ccccc2)O[C@H]1c1cnccn1.[Cl][Ir+2] [Ir-7d]
A2780 MTT Max Inhibition [4]: 38.71%
A2780 SRB Max Inhibition [6]: 80.44%

logD [7]: 1.42
Compound: Cc1ccc(C(C)C)cc1.F[P-](F)(F)(F)(F)F.N[C@@H]1[C@@H](OC(=O)c2ccccc2)[C@H](OC(=O)c2ccccc2)[C@@H](COC(=O)c2ccccc2)O[C@H]1c1cnccn1.[Cl][Os+] [Os-7d]
A2780 MTT Max Inhibition [4]: 46.72%
A2780 SRB Max Inhibition [6]: 80.44%

logD [7]: 2.21
MIC ([1]; clinical isolate 20,426 MRSA, read-out: MIC 20,426 MRSA): >40 µM
MIC ([1]; clinical isolate 24,035 MRSA, read-out: MIC 24,035 MRSA): >40 µM
MIC ([1]; clinical isolate 24,268 MRSA, read-out: MIC 24,268 MRSA): >40 µM
MIC ([1]; clinical isolate 24,272 MRSA, read-out: MIC 24,272 MRSA): >40 µM
MIC ([1]; clinical isolate 24,328 MRSA, read-out: MIC 24,328 MRSA): >40 µM
MIC ([1]; clinical isolate 24,408 MRSA, read-out: MIC 24,408 MRSA): >40 µM
MIC ([2]; 24 h): >40 µM
MIC [3]: >40 µM
MIC ([5]; clinical isolate 25,051 VRE, read-out: MIC 25,051 VRE): >40 µM
MIC ([5]; clinical isolate 25,498 VRE, read-out: MIC 25,498 VRE): >40 µM
MIC ([5]; clinical isolate 27,085 VRE, read-out: MIC 27,085 VRE): >40 µM
Compound: Cc1ccc(C(C)C)cc1.F[P-](F)(F)(F)(F)F.N[C@@H]1[C@@H](OC(=O)c2ccccc2)[C@H](OC(=O)c2ccccc2)[C@@H](COC(=O)c2ccccc2)O[C@H]1c1ccc2ccccc2n1.[Cl][Os+] [Os-7e]
A2780 MTT Max Inhibition [4]: 27.04%
A2780 SRB Max Inhibition [6]: 67.50%

logD [7]: 1.04
Compound: Cc1c(C)c(C)[c-](C)c1C.F[P-](F)(F)(F)(F)F.N[C@@H]1[C@@H](OC(=O)c2ccccc2)[C@H](OC(=O)c2ccccc2)[C@@H](COC(=O)c2ccccc2)O[C@H]1c1cnccn1.[Cl][Rh+2] [Rh-7d]
A2780 MTT Max Inhibition [4]: 18.08%
A2780 SRB Max Inhibition [6]: 64.76%

logD [7]: −1.91
Compound: Cc1ccc(C(C)C)cc1.F[P-](F)(F)(F)(F)F.N[C@@H]1[C@@H](O)[C@H](O)[C@@H](CO)O[C@H]1c1ccccn1.[Cl][Ru+] [Ru-5a]
A2780 MTT Max Inhibition [4]: did not exhibit any biological activity
A2780 SRB Max Inhibition [6]: did not exhibit any biological activity

logD [7]: 1.26
Compound: Cc1ccc(C(C)C)cc1.F[P-](F)(F)(F)(F)F.N[C@@H]1[C@@H](OC(=O)c2ccccc2)[C@H](OC(=O)c2ccccc2)[C@@H](COC(=O)c2ccccc2)O[C@H]1c1cnccn1.[Cl][Ru+] [Ru-7d]
A2780 MTT Max Inhibition [4]: 64.04%
A2780 SRB Max Inhibition [6]: 80.44%
